Test results from patent US20130072470A1 (ABBVIE INC., priority 2011, published 2013).

Biological target: T1, Jak3 enzyme (aa 811-1103) (Homo sapiens, UniProt P52333)
T1 construct: Jak3 enzyme (aa 811-1103); expressed in SF9 cells as a GST fusion; GST; made in house; host or cells: SF9 insect cells
Experiment: In vitro Jak3 kinase activity measured by time-resolved fluorescence resonance energy transfer (trFRET)
Format: biochemical
Conditions: ATP 0.001 mM
Experimental: In Vitro Jak3 Kinase Activity Measured by Time-Resolved Fluorescence Resonance Energy Transfer (trFRET)
Varying concentrations of inhibitor were added to an assay well containing: Jak3 enzyme (aa 811-1103; expressed in SF9 cells as a GST fusion and purified by glutathione affinity chromatography; 3 nM), peptide substrate (biotin-TYR2, Sequence: Biotin-(Ahx)-AEEEYFFLFA-amide; 2 μM), MOPSO pH 6.5 (50 mM), MgCl2 (10 mM), MnCl2 (2 mM), DTT (2.5 mM), BSA (0.01% w/v), Na3VO4 (0.1 mM) and ATP (0.001 mM). After about 60 min incubation at rt, the reaction was quenched by addition of EDTA (final concentration: 100 mM) and developed by addition of revelation reagents (final approximate concentrations: 30 mM HEPES pH 7.0, 0.06% BSA, 0.006% Tween-20, 0.24 M KF, 80 ng/mL PT66K (europium labeled anti-phosphotyrosine antibody cat #61T66KLB Cisbio, Bedford, Mass.) and 0.8 μg/mL SAXL (Phycolink streptavidin-allophycocyanin acceptor, cat #PJ52S, Prozyme, San Leandro, Calif.). The developed reaction was incubated in the dark either at about 4° C., for about 14 h or for about 60 min at rt, then read via a time-resolved fluorescence detector (Rubystar, BMG) using a 337 nm laser for excitation and emission wavelength of 665 nm. Within the linear range of the assay, the observed signal at 665 nm is directly related to phosphorylated product and used to calculate the IC50 values.

T1 sequence (P52333 811-1103): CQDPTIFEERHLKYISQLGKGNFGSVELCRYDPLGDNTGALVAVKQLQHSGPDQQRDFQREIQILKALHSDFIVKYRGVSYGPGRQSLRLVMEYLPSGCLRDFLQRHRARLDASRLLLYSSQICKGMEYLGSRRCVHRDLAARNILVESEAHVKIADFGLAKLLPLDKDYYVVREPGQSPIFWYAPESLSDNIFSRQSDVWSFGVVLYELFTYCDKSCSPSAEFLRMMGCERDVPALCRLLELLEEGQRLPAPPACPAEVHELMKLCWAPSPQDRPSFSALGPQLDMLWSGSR

IC50 [µM] | Molecule
> 10 | C[C@@H]1CN(C(=O)N2CCOCC2)C[C@@H]1c1cnc2cnc3[nH]ccc3n12 [Example #20, ((3R,4S)-3-(3H-imidazo[1,2-a]pyrrolo[2,3-e]pyrazin-8-yl)-4-methylpyrrolidin-1-yl)(morpholino)methanone]
1 to 10 | CC[C@@H]1CN(C(=O)NCCF)C[C@@H]1c1cnc2cnc3[nH]ccc3n12 [Example #13, (3S,4R)-3-ethyl-N-(2-fluoroethyl)-4-(3H-imidazo[1,2-a]pyrrolo[2,3-e]pyrazin-8-yl)pyrrolidine-1-carboxamide]
> 10 | 1-((1R,3S,4R)-3-(3H-imidazo[1,2-a]pyrrolo[2,3-e]pyrazin-8-yl)-4-methylcyclopentyl)methyl)azetidine-3-carbonitrile and 1-(((1S,3S,4R)-3-(3H-imidazo[1,2-a]pyrrolo[2,3-e]pyrazin-8-yl)-4-methylcyclopentyl)methyl)azetidine-3-carbonitrile [Example #7]

Same assay, conditions: ATP 0.001 mM, Table B

Molecule | IC50 [µM]
CC[C@@H]1C[C@H](NC(=O)CCC2(C)CC2)C[C@@H]1c1nnc2cnc3[nH]ccc3n12 [compound 44, N-((1S,3R,4S)-3-ethyl-4-(6H-pyrrolo[2,3-e][1,2,4]triazolo[4,3-a]pyrazin-1-yl)cyclopentyl)-3-(1-methylcyclopropyl)propanamide] | 1 to 10
CC[C@@H]1C[C@H](NC(=O)CCC2CCC2)C[C@@H]1c1nnc2cnc3[nH]ccc3n12 [compound 67, 3-cyclobutyl-N-((1S,3R,4S)-3-ethyl-4-(6H-pyrrolo[2,3-e][1,2,4]triazolo[4,3-a]pyrazin-1-yl)cyclopentyl)propanamide] | 1 to 10
CCc1ocnc1C(=O)N[C@H]1C[C@@H](CC)[C@@H](c2nnc3cnc4[nH]ccc4n23)C1 [compound 74, 5-ethyl-N-((1S,3R,4S)-3-ethyl-4-(6H-pyrrolo[2,3-e][1,2,4]triazolo[4,3-a]pyrazin-1-yl)cyclopentyl)oxazole-4-carboxamide] | 1 to 10
CC[C@@H]1C[C@H](NC(=O)c2cnco2)C[C@@H]1c1nnc2cnc3[nH]ccc3n12 [compound 82, N-((1S,3R,4S)-3-ethyl-4-(6H-pyrrolo[2,3-e][1,2,4]triazolo[4,3-a]pyrazin-1-yl)cyclopentyl)oxazole-5-carboxamide] | 1 to 10
CC[C@@H]1C[C@H](NC(=O)CCC2CCCCC2=O)C[C@@H]1c1nnc2cnc3[nH]ccc3n12 (stereo partly drawn) [compound 70, N-((1S,3R,4S)-3-ethyl-4-(6H-pyrrolo[2,3-e][1,2,4]triazolo[4,3-a]pyrazin-1-yl)cyclopentyl)-3-(2-oxocyclohexyl)propanamide] | > 10
CC[C@@H]1C[C@H](NC(=O)c2noc3c2CCCC3)C[C@@H]1c1nnc2cnc3[nH]ccc3n12 [compound 72, N-((1S,3R,4S)-3-ethyl-4-(6H-pyrrolo[2,3-e][1,2,4]triazolo[4,3-a]pyrazin-1-yl)cyclopentyl)-4,5,6,7-tetrahydrobenzo[d]isoxazole-3-carboxamide] | 1 to 10
CC[C@@H]1C[C@H](NC(=O)c2cc3ccccc3o2)C[C@@H]1c1nnc2cnc3[nH]ccc3n12 [compound 57, N-((1S,3R,4S)-3-ethyl-4-(6H-pyrrolo[2,3-e][1,2,4]triazolo[4,3-a]pyrazin-1-yl)cyclopentyl)benzofuran-2-carboxamide] | 1 to 10
CC[C@@H]1C[C@H](NC(=O)c2cc(C)on2)C[C@@H]1c1nnc2cnc3[nH]ccc3n12 [compound 49, N-((1S,3R,4S)-3-ethyl-4-(6H-pyrrolo[2,3-e][1,2,4]triazolo[4,3-a]pyrazin-1-yl)cyclopentyl)-5-methylisoxazole-3-carboxamide] | 1 to 10
CC[C@@H]1C[C@H](NC(=O)c2ccc(C)o2)C[C@@H]1c1nnc2cnc3[nH]ccc3n12 [compound 46, N-((1S,3R,4S)-3-ethyl-4-(6H-pyrrolo[2,3-e][1,2,4]triazolo[4,3-a]pyrazin-1-yl)cyclopentyl)-5-methylfuran-2-carboxamide] | > 10

Results, then the molecule that gave them:

IC50 [µM] | Molecule
1 to 10 | CC[C@@H]1C[C@H](NC(=O)CCC2CC2)C[C@@H]1c1nnc2cnc3[nH]ccc3n12 [compound 45, 3-cyclopropyl-N-((1S,3R,4S)-3-ethyl-4-(6H-pyrrolo[2,3-e][1,2,4]triazolo[4,3-a]pyrazin-1-yl)cyclopentyl)propanamide]
1 to 10 | CC[C@@H]1C[C@H](NC(=O)CSc2nnc(C)o2)C[C@@H]1c1nnc2cnc3[nH]ccc3n12 [compound 75, N-((1S,3R,4S)-3-ethyl-4-(6H-pyrrolo[2,3-e][1,2,4]triazolo[4,3-a]pyrazin-1-yl)cyclopentyl)-2-(5-methyl-1,3,4-oxadiazol-2-ylthio)acetamide]
1 to 10 | CC[C@@H]1C[C@H](NC(=O)/C=C/c2ccco2)C[C@@H]1c1nnc2cnc3[nH]ccc3n12 [compound 60, (E)-N-((1S,3R,4S)-3-ethyl-4-(6H-pyrrolo[2,3-e][1,2,4]triazolo[4,3-a]pyrazin-1-yl)cyclopentyl)-3-(furan-2-yl)acrylamide]
1 to 10 | CC[C@@H]1C[C@H](NC(=O)c2ccoc2C)C[C@@H]1c1nnc2cnc3[nH]ccc3n12 [compound 52, N-((1S,3R,4S)-3-ethyl-4-(6H-pyrrolo[2,3-e][1,2,4]triazolo[4,3-a]pyrazin-1-yl)cyclopentyl)-2-methylfuran-3-carboxamide]
1 to 10 | CC[C@@H]1C[C@H](NC(=O)CNC(=O)c2ccc(C)o2)C[C@@H]1c1nnc2cnc3[nH]ccc3n12 [compound 30, N-(2-((1S,3R,4S)-3-ethyl-4-(6H-pyrrolo[2,3-e][1,2,4]triazolo[4,3-a]pyrazin-1-yl)cyclopentylamino)-2-oxoethyl)-5-methylfuran-2-carboxamide]
1 to 10 | CC[C@@H]1C[C@H](NC(=O)CCc2cc(OC)no2)C[C@@H]1c1nnc2cnc3[nH]ccc3n12 [compound 36, N-((1S,3R,4S)-3-ethyl-4-(6H-pyrrolo[2,3-e][1,2,4]triazolo[4,3-a]pyrazin-1-yl)cyclopentyl)-3-(3-methoxyisoxazol-5-yl)propanamide]
1 to 10 | CC[C@@H]1C[C@H](NC(=O)c2conc2C)C[C@@H]1c1nnc2cnc3[nH]ccc3n12 [compound 34, N-((1S,3R,4S)-3-ethyl-4-(6H-pyrrolo[2,3-e][1,2,4]triazolo[4,3-a]pyrazin-1-yl)cyclopentyl)-3-methylisoxazole-4-carboxamide]
1 to 10 | CC[C@@H]1C[C@H](NC(=O)C2(C#N)CC2)C[C@@H]1c1nnc2cnc3[nH]ccc3n12 [compound 54, 1-cyano-N-((1S,3R,4S)-3-ethyl-4-(6H-pyrrolo[2,3-e][1,2,4]triazolo[4,3-a]pyrazin-1-yl)cyclopentyl)cyclopropanecarboxamide]
< 1 | CC[C@@H]1C[C@H](NC(=O)c2noc3ccccc23)C[C@@H]1c1nnc2cnc3[nH]ccc3n12 [compound 68, N-((1S,3R,4S)-3-ethyl-4-(6H-pyrrolo[2,3-e][1,2,4]triazolo[4,3-a]pyrazin-1-yl)cyclopentyl)benzo[d]isoxazole-3-carboxamide]
< 1 | CC[C@@H]1C[C@H](NC(=O)c2cc(-c3ccco3)on2)C[C@@H]1c1nnc2cnc3[nH]ccc3n12 [compound 73, N-((1S,3R,4S)-3-ethyl-4-(6H-pyrrolo[2,3-e][1,2,4]triazolo[4,3-a]pyrazin-1-yl)cyclopentyl)-5-(furan-2-yl)isoxazole-3-carboxamide]
